{"source": "patent US5681563A", "about": "“7-vinylidene cephalosporins and methods of using the same” (Research Corporation Technologies, Inc., priority 1996, dated 1997)", "biological_target": "β-lactamase of Enterobacter cloacae P99 (Enterobacter cloacae, UniProt P05364)", "sequence (P05364 21-381)": "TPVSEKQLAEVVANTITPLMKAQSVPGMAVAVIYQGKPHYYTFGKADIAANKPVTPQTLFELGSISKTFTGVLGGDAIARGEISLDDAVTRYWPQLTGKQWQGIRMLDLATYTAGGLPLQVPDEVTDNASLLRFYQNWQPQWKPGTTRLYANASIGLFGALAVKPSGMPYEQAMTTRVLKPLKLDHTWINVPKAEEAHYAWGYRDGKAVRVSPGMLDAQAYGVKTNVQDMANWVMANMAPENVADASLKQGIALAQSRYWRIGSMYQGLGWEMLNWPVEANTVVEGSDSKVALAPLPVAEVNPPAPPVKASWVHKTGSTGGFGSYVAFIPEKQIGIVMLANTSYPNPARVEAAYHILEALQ", "assay": "P99 β-lactamase inhibitory activity (loss of nitrocefin hydrolysis by free enzyme)", "format": "biochemical", "protocol": "The activity of the present compounds against β-lactamases was determined by measuring the IC50. The IC50 value represents the concentration of inhibitor required to effect a 50% loss of activity of free enzyme. The present 7-vinylidenecephems were evaluated as inhibitors of the β-lactamase of Enterobacter cloacae P99. The IC50 value of each compound was determined as follows. Following a 10 minute incubation of a dilute solution of enzyme (2.56 nM) and inhibitor (<0.64 mM), a […] of this incubation mixture was then further diluted into 1 mL nitrocefin solution, and the rate of hydrolysis was measured during a 1 minute period by monitoring the absorbance of nitrocefin as a function of time.", "key": {"[1]": {"settings": "P99 β-lactamase, 10 minute incubation of enzyme (2.56 nM) and inhibitor (<0.64 mM), then dilution into nitrocefin solution, rate over 1 minute, read-out: IC50 (converted)"}, "[2]": {"settings": "P99 β-lactamase, 10 minute incubation of enzyme (2.56 nM) and inhibitor (<0.64 mM), then dilution into nitrocefin solution, rate over 1 minute"}}, "note": "Where a name gives a salt, the structure may show the parent alone. Read-outs that look alike come from different tables or passages of the source."}
{"compound": "CC(=O)OCC1=C(C(=O)O)N2C(=O)C(=C=CC(C)(C)C)[C@H]2SC1", "note": "[Compound 13, Sodium Salt of 7-(2'α-t-Butylvinylidene) Cephalosporanic Acid]", "values": [{"measurement": "IC50", "setting": "[1]", "result": 11.6, "unit": "µM"}]}
{"compound": "CC(C)(C)C=C=C1C(=O)N2[C@@H](C(=O)O)C(C)(C)S(=O)(=O)[C@H]12", "note": "[6-(2'α-t-butylvinylidene) penam sulfone, reference compound]", "values": [{"measurement": "IC50", "setting": "[1]", "result": 1.24, "unit": "µM"}]}
{"compound": "C=C=C1C(=O)N2C(C(=O)O)=C(COC(C)=O)CS[C@H]12", "note": "[Compound 15, Sodium Salt of 7-Vinylidene Cephalosporanic Acid]", "values": [{"measurement": "IC50", "setting": "[1]", "result": 91.8, "unit": "µM"}]}
{"compound": "C=C=C1C(=O)N2C(C(=O)O)=C(COC(C)=O)CS(=O)(=O)[C@H]12", "note": "[Compound 17, 7-vinylidenecephem sulfone]", "values": [{"measurement": "IC50", "setting": "[1]", "result": 0.351, "unit": "µM"}]}
{"compound": "CC(=O)OCC1=C(C(=O)O)N2C(=O)C(=C=CC(C)(C)C)[C@H]2S(=O)(=O)C1", "note": "[Compound 16, Sodium Salt of 7-(2'α-t-Butylvinylidene) Cephalosporanic Acid Sulfone]", "values": [{"measurement": "fold better inhibitor than clavulanic acid", "result": "~350", "unit": "fold"}, {"measurement": "fold better inhibitor than tazobactam", "result": "approximately five"}, {"measurement": "β-lactamase inhibition (in words)", "result": "most potent inhibitor"}, {"measurement": "IC50", "setting": "read-out: IC50 (converted)", "result": 0.135, "unit": "µM"}]}
{"compound": "7-(2'α-t-butyl-2'β-deuteriovinylidene) cephem sulfone", "values": [{"measurement": "IC50", "setting": "[2]", "result": 100, "unit": "µg/mL"}]}
{"compound": "CC(=O)OCC1=C(C(=O)[O-])N2C(=O)C(=C=CBr)C2SC1.[Na+]", "note": "(stereo not drawn) [Compound 14, Sodium Salt of 7-(2'α-Bromovinylidene) Cephalosporanic Acid]", "values": [{"measurement": "IC50", "setting": "[2]", "result": 6160, "unit": "µg/mL"}]}
